Experimental data as given in ChEMBL document CHEMBL4184336, “Structure-Guided Modification of Heterocyclic Antagonists of the P2Y14 Receptor” (J Med Chem, 2018).

Legend:
[1] = target: Delta-type opioid receptor (Homo sapiens, UniProt P41143); assay: Displacement of [3H]-DADLE from human delta opioid receptor expressed in HEK293 cells after 90 mins by scintillation counting method; type: cell-based
P2Y purinoceptor 14 = target: T1, P2Y purinoceptor 14 (Homo sapiens, UniProt Q15391)
T1 sequence (Q15391 whole entry): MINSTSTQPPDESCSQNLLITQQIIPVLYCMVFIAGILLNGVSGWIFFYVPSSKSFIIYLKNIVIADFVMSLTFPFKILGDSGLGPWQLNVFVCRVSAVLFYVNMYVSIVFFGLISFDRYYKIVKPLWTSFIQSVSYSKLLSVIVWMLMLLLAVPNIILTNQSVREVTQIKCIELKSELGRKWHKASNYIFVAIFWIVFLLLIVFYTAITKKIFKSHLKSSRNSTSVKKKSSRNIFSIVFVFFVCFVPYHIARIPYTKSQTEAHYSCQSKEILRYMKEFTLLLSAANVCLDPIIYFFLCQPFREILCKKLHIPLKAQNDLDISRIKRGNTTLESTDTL
Description: Displacement of MRS4174 from human P2Y14R expressed in CHO cells preincubated for 30 mins followed by MRS4174 addition measured after 30 mins by flow cytometric method

[2] = Half life in Sprague-Dawley rat plasma at 0.5 mg/kg, iv; type: ADME, organism-based
Cytochrome P450 1A2 = Cytochrome P450 1A2 (Homo sapiens, UniProt P05177); assay: Inhibition of CYP1A2 (unknown origin); type: ADME
Cytochrome P450 1A2, sequence (P05177 whole entry): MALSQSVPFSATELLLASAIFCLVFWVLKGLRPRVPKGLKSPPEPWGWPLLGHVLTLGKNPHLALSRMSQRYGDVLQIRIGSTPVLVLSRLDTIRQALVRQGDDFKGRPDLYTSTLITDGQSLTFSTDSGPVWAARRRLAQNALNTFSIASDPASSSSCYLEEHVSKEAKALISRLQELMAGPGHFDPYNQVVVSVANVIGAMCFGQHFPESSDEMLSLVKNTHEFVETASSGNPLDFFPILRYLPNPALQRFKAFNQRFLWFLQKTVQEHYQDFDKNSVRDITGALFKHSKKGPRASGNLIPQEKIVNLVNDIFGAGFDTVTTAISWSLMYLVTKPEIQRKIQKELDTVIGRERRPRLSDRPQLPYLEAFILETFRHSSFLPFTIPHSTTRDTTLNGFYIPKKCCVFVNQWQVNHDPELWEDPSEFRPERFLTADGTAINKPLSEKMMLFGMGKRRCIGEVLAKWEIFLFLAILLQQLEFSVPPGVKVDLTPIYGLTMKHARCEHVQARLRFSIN

Cytochrome P450 2C9 = Cytochrome P450 2C9 (Homo sapiens, UniProt P11712); assay: Inhibition of CYP2C9 (unknown origin); type: ADME
Cytochrome P450 2C9, sequence (P11712 whole entry): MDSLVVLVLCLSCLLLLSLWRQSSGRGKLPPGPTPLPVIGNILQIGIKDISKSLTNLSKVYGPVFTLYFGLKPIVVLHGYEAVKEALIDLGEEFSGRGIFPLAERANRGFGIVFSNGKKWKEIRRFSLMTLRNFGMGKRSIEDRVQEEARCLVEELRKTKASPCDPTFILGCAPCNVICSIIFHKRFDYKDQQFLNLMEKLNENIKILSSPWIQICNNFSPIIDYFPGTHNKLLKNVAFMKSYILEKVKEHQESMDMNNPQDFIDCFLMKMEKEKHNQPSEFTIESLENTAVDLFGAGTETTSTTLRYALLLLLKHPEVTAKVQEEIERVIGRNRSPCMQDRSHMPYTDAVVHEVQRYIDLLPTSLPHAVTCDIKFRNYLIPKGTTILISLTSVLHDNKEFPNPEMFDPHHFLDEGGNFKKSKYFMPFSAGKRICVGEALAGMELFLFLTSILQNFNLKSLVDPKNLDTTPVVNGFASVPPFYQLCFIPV

Cytochrome P450 2C19 = Cytochrome P450 2C19 (Homo sapiens, UniProt P33261); assay: Inhibition of CYP2C19 (unknown origin); type: ADME
Cytochrome P450 2C19, sequence (P33261 whole entry): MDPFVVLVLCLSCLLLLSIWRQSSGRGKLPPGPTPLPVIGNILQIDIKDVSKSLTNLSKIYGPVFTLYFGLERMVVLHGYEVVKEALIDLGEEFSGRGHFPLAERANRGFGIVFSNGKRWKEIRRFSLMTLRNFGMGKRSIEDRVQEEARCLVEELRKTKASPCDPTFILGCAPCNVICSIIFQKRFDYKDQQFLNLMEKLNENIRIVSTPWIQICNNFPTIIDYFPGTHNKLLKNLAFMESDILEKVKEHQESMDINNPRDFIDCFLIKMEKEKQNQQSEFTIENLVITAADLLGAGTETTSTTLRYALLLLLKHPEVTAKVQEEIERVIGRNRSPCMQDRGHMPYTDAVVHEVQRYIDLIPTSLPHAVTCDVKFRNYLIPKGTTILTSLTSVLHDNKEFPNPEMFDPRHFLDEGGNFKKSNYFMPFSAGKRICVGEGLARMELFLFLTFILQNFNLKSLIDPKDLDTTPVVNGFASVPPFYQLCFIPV

Cytochrome P450 2D6 = Cytochrome P450 2D6 (Homo sapiens, UniProt P10635); assay: Inhibition of CYP2D6 (unknown origin); type: ADME
Cytochrome P450 2D6, sequence (P10635 whole entry): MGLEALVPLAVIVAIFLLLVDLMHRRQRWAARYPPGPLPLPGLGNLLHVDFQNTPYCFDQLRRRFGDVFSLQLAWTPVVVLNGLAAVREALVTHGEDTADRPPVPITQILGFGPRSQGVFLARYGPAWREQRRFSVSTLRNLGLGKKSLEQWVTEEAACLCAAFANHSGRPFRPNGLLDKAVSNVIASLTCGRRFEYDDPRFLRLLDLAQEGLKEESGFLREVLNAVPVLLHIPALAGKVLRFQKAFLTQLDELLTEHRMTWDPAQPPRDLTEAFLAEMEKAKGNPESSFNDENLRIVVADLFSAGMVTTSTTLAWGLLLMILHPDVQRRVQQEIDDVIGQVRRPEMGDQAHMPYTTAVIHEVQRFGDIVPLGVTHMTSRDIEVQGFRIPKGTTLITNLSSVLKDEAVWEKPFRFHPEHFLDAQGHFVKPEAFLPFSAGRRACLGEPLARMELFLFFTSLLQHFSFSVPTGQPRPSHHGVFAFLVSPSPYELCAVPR

Cytochrome P450 3A4 = Cytochrome P450 3A4 (Homo sapiens, UniProt P08684); assay: Inhibition of CYP3A4 (unknown origin); type: ADME
Cytochrome P450 3A4, sequence (P08684 whole entry): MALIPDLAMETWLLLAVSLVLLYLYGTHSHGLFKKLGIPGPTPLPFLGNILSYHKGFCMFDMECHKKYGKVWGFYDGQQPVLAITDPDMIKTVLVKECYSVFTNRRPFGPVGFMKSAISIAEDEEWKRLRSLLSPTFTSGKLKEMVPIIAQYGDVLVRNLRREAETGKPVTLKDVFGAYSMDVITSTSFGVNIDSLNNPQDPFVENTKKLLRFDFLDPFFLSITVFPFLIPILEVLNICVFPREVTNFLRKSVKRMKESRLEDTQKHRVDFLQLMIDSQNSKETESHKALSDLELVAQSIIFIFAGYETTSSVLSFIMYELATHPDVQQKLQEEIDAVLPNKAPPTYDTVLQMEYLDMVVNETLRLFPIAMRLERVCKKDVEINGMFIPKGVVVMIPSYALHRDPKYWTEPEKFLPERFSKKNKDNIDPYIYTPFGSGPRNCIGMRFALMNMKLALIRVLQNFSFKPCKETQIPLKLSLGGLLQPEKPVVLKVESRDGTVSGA

[3] = Metabolic stability in human plasma assessed as parent compound remaining after 120 mins; type: ADME, cell-free; details: read-out: Stability
[4] = Metabolic stability in rat plasma assessed as parent compound remaining after 120 mins; type: ADME, cell-free; details: read-out: Stability
[5] = Metabolic stability in mouse plasma assessed as parent compound remaining after 120 mins; type: ADME, cell-free; details: read-out: Stability
HepG2 = assay: Cytotoxicity against human HepG2 cells; type: cell-based
[6] = Aqueous solubility of the compound; type: physicochemical; details: buffer
[7] = target: Voltage-gated inwardly rectifying potassium channel KCNH2 (Homo sapiens, UniProt Q12809); assay: Inhibition of human ERG
Voltage-gated inwardly rectifying potassium channel KCNH2, sequence (Q12809 whole entry): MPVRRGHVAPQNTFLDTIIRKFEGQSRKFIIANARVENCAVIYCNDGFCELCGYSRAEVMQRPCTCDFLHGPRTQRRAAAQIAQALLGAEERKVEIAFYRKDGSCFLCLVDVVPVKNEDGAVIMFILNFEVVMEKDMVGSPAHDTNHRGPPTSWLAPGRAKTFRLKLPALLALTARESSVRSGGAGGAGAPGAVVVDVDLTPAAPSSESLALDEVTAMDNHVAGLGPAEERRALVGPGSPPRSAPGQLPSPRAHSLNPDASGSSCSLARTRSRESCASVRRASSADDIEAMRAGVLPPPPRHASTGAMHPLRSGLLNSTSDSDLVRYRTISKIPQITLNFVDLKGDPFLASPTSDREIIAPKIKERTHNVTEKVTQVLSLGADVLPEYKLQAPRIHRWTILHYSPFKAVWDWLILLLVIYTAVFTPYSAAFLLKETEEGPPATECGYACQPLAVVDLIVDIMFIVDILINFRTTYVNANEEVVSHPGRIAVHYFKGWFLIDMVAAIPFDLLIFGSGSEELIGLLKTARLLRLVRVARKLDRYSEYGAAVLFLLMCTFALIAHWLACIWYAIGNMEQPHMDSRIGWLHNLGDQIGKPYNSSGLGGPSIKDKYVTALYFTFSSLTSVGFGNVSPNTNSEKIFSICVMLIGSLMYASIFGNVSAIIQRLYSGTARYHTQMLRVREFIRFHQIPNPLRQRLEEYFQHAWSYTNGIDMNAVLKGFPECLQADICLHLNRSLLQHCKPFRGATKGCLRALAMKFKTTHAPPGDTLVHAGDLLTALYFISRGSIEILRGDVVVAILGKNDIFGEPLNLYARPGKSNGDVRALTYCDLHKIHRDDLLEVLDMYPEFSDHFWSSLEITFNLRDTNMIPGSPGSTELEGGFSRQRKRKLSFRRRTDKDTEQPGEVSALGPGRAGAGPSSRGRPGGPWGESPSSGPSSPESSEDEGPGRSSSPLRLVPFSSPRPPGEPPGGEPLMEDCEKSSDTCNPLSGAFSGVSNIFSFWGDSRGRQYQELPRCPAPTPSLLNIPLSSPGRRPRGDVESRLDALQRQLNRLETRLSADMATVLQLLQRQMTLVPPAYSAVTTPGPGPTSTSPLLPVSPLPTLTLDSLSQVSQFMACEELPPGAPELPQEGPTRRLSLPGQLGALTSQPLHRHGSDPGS

Delta-type opioid receptor, sequence (P41143 whole entry): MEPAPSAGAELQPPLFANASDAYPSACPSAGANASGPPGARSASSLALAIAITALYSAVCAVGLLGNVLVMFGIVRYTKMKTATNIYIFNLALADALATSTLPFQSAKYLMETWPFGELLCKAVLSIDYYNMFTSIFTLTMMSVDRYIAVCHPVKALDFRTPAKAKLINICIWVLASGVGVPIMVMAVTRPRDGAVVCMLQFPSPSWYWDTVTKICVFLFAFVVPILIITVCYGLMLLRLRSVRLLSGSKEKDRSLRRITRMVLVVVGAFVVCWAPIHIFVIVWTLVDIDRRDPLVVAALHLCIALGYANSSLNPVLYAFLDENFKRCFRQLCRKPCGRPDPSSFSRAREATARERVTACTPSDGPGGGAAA

NS(=O)(=O)c1ccc(-c2cc(C(=O)O)cc(-n3cc(-c4ccc(C(F)(F)F)cc4)nn3)c2)cc1
Ki [1]: 3.26 µM
IC50 (P2Y purinoceptor 14): 0.608 µM

NS(=O)(=O)c1ccc(-c2cc(C(=O)O)cc(-n3cc(-c4ccc(C(F)(F)F)cc4)nn3)c2)s1
IC50 (P2Y purinoceptor 14): 6.44 µM

CC(C)(C)OC(=O)NCCCNS(=O)(=O)c1ccc(-c2cc(C(=O)O)cc(-n3cc(-c4ccc(C(F)(F)F)cc4)nn3)c2)s1
IC50 (P2Y purinoceptor 14): 9.33 µM

NC(=O)c1ccc(-c2cc(C(=O)O)cc(-n3cc(-c4ccc(C(F)(F)F)cc4)nn3)c2)cn1
IC50 (P2Y purinoceptor 14): 1.41 µM

NCCCCNS(=O)(=O)c1ccc(-c2cc(C(=O)O)cc(-n3cc(-c4ccc(C(F)(F)F)cc4)nn3)c2)s1
IC50 (P2Y purinoceptor 14): 2.18 µM

O=C(O)c1cc(O)cc(-n2cc(-c3ccc(C(F)(F)F)cc3)nn2)c1
IC50 (P2Y purinoceptor 14): 16.4 µM

O=C(O)c1cc(-c2ccc(S(=O)(=O)NCCCCO)s2)cc(-n2cc(-c3ccc(C(F)(F)F)cc3)nn2)c1
IC50 (P2Y purinoceptor 14): 8.42 µM

NCCNS(=O)(=O)c1ccc(-c2cc(C(=O)O)cc(-n3cc(-c4ccc(C(F)(F)F)cc4)nn3)c2)s1
IC50 (P2Y purinoceptor 14): 2.26 µM

CCN(CC)CC.NC(=O)c1ccc(-c2cc(C(=O)O)cc(-n3cc(-c4ccc(C(F)(F)F)cc4)nn3)c2)cc1
Ki [1]: 1.47 µM
half-life [2]: 12 min
IC50 (Cytochrome P450 1A2): ≥ 30 µM
IC50 (Cytochrome P450 2C9): ≥ 30 µM
IC50 (Cytochrome P450 2C19): ≥ 30 µM
IC50 (Cytochrome P450 2D6): ≥ 30 µM
IC50 (Cytochrome P450 3A4): ≥ 30 µM
remaining at 2 h [3]: 94 to 100%
remaining at 2 h [4]: 94 to 100%
remaining at 2 h [5]: 94 to 100%
CC50 (HepG2): > 30 µM
solubility [6]: 138 µg/mL
IC50 [7]: 0.166 µM
IC50 (P2Y purinoceptor 14): 0.269 µM

CC(C)(C)NC(=O)c1ccc(-c2cc(-c3nnn[nH]3)cc(-n3cc(-c4ccc(C(F)(F)F)cc4)nn3)c2)cc1
IC50 (P2Y purinoceptor 14): 20.7 µM

O=C(O)c1cc(Br)cc(-n2cc(-c3ccc(C(F)(F)F)cc3)nn2)c1
IC50 (P2Y purinoceptor 14): 26.8 µM

NC(=O)c1ccc(-c2cc(C(=O)O)cc(-n3cc(-c4ccc(C(F)(F)F)cc4)nn3)c2)nc1
IC50 (P2Y purinoceptor 14): 0.516 µM

O=C(O)c1cc(-c2ccc(CN3CCNCC3)s2)cc(-n2cc(-c3ccc(C(F)(F)F)cc3)nn2)c1
IC50 (P2Y purinoceptor 14): 1.96 µM

O=C(O)c1cc(-c2ccc(C(=O)N3CCNCC3)s2)cc(-n2cc(-c3ccc(C(F)(F)F)cc3)nn2)c1
IC50 (P2Y purinoceptor 14): 12.6 µM

FC(F)(F)c1ccc(-c2cn(-c3cc(Br)cc(-c4nnn[nH]4)c3)nn2)cc1
IC50 (P2Y purinoceptor 14): 33.1 µM

NC(=O)c1ccc(-c2cc(C(=O)O)cc(-n3cc(-c4ccc(C(F)(F)F)cc4)nn3)c2)o1
IC50 (P2Y purinoceptor 14): 3.11 µM

C#CCCCCN1CCC(c2ccc(-c3cc(C(=O)O)cc4cc(-c5ccc(C(F)(F)F)cc5)ccc34)cc2)CC1
IC50 (P2Y purinoceptor 14): 0.763 µM

CCNC(=O)c1ccc(-c2cc(C(=O)O)cc(-n3cc(-c4ccc(C(F)(F)F)cc4)nn3)c2)cc1
IC50 (P2Y purinoceptor 14): 0.899 µM

NCCCNC(=O)c1ccc(-c2cc(-c3nnn[nH]3)cc(-n3cc(-c4ccc(C(F)(F)F)cc4)nn3)c2)s1
IC50 (P2Y purinoceptor 14): 1.19 µM

CCCNC(=O)c1ccc(-c2cc(C(=O)O)cc(-n3cc(-c4ccc(C(F)(F)F)cc4)nn3)c2)cc1
IC50 (P2Y purinoceptor 14): 1.49 µM

CC(C)(C)OC(=O)N1CCN(C(=O)c2ccc(-c3cc(C(=O)O)cc(-n4cc(-c5ccc(C(F)(F)F)cc5)nn4)c3)s2)CC1
IC50 (P2Y purinoceptor 14): 53 µM
